From patent publication US20240116985A1, “STAPLED PEPTIDES AND METHODS THEREOF” (priority 2020, published 2024)
Values after ≈ are worked out from the molar mass of the structure shown. Like-named read-outs stand apart in the source and are kept apart here.

Experiments:
[1] = target: T1, beta-catenin/TCF4 engagement (Homo sapiens, UniProt P35222); assay: Nano-BRET target engagement assay (B-cat-Halo & TCF4-Luc in HEK293 cells); type: cell-based; conditions: absolute IC50; read-out: NanoBRET Abs IC50
T1 construct: expressed in transfected cells; host or cells: HEK293
T1 sequence (P35222 1-781): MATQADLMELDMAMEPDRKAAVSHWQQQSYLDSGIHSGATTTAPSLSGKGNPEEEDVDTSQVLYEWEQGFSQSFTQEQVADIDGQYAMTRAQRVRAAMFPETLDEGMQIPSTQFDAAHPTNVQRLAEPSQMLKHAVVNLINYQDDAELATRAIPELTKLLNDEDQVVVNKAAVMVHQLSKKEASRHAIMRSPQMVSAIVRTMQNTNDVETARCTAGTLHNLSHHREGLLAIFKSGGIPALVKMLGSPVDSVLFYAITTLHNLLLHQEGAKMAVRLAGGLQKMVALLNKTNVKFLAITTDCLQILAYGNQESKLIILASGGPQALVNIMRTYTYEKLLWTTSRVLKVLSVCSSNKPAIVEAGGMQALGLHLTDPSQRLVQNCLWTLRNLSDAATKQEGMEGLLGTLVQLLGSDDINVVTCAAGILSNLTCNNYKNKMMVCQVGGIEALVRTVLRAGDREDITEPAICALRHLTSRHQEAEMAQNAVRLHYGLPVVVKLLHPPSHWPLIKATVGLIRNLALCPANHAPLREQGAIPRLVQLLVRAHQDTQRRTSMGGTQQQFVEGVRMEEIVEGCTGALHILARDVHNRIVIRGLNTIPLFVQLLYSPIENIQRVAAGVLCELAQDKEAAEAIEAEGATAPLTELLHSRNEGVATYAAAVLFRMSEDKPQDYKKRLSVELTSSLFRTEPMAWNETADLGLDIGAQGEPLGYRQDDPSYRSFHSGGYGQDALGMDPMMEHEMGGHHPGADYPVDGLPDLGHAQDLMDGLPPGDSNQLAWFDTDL

[2] = target: T2, full-length beta-Catenin (Uniprot ID P35222) (Homo sapiens, UniProt P35222); assay: Fluorescence polarization IC50 (beta-catenin / 5FAM-TCF4 10-53 competition); type: binding; conditions: fluorescence polarization
T2 construct: 10 nM full-length beta-Catenin (Uniprot ID P35222)
T2 sequence (P35222 1-781): T1 sequence (P35222 1-781)

[3] = Solubility in PBS; type: physicochemical
Outline: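 Solubility is derived from HPLC peak areas: the ratio of the PBS supernatant peak to a 50 μM DMSO peptide peak, times 50 uM.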

IC50 [1]	IC50 ([2]; read-out: beta-Catenin FP IC50)	Solubility [3]	Solubility ([3]; Solubility (uM))	IC50 ([2]; beta-catenin, read-out: FP EC50)	Compound
27300 nM	24 nM	10 µM (≈ 19.5 µg/mL)			CC(=O)N1CCC[C@]12CC=CCCCC1(CCCC=CCCCOC(=O)N3CC[C@@](C(=O)N[C@@H](Cc4ccccc4Cl)C(=O)N[C@@H](Cc4csc5ccccc45)C(=O)N[C@@H](CCC(N)=O)C(N)=O)(C3)NC(=O)[C@H]([C@@H](C)O)NC(=O)[C@H](Cc3ccccc3)NC(=O)[C@H](C)NC(=O)[C@H](C)NC(=O)[C@H]([C@@H](C)O)NC(=O)[C@H](CC(=O)O)NC1=O)NC(=O)[C@H](CC1CCCCC1)NC(=O)[C@H](CC(=O)O)NC2=O (stereo partly drawn) [I-1175, Ac-PL3-Asp-Cha-B5-Asp-Thr-Ala-Ala-Phe-Thr-PyrS2-2C1F-BztA-Gln-NH2]
4300 nM	25 nM		35 µM (≈ 67.6 µg/mL)		CC(=O)N1CCC[C@]12CC=CCCCC1(CCCC=CCCCOC(=O)N3CC[C@@](C(=O)N[C@@H](Cc4ccsc4)C(=O)N[C@@H](Cc4csc5ccccc45)C(=O)N[C@@H](CCC(N)=O)C(N)=O)(C3)NC(=O)[C@H](CC(C)C)NC(=O)[C@H](Cc3ccccc3)NC(=O)[C@H](C)NC(=O)C(C)(C)NC(=O)[C@H](CC(=O)O)NC(=O)[C@H](CC(=O)O)NC1=O)NC(=O)[C@H](CC(C)(C)C)NC(=O)[C@H](CC(=O)O)NC2=O (stereo partly drawn) [I-1177, Ac-PL3-Asp-Npg-B5-Asp-Asp-Aib-Ala-Phe-Leu-PyrS2-3Thi-BztA-Gln-NH2]
> 20000 nM	297 nM	50 µM (≈ 92.6 µg/mL)		226 nM	CC(=O)N1CCC[C@H]1C(=O)N[C@@H](CC(=O)O)C(=O)N[C@@H](CC(C)(C)C)C(=O)N[C@]1(C)CCCC=CCCCOC(=O)N2CC[C@@](C(=O)N[C@@H](Cc3ccsc3)C(=O)N[C@@H](Cc3csc4ccccc34)C(=O)N[C@@H](CCC(N)=O)C(N)=O)(C2)NC(=O)[C@H](CC(C)C)NC(=O)[C@H](Cc2ccccc2)NC(=O)[C@H](C)NC(=O)[C@H](C)NC(=O)[C@H](CC(=O)O)NC(=O)[C@H](CC(=O)O)NC1=O [I-1181, Ac-Pro-Asp-Npg-R5-Asp-Asp-Ala-Ala-Phe-Leu-PyrS2-3Thi-BztA-Gln-NH2]
26900 nM	203 nM		33 µM (≈ 66 µg/mL)		CC(=O)N1CCC[C@]12CC=CCCCC1(CCCC=CCCCOC(=O)N3CC[C@@](C(=O)N[C@@H](Cc4c(F)c(F)c(F)c(F)c4F)C(=O)N[C@@H](Cc4csc5ccccc45)C(=O)N[C@@H](CCC(N)=O)C(N)=O)(C3)NC(=O)[C@H](CC(C)C)NC(=O)[C@H](Cc3ccccc3)NC(=O)[C@H](C)NC(=O)[C@H](C)NC(=O)[C@H](CC(=O)O)NC(=O)[C@H](CC(=O)O)NC1=O)NC(=O)[C@H](CC(C)(C)C)NC(=O)[C@H](CC(=O)O)NC2=O (stereo partly drawn) [I-1185, Ac-PL3-Asp-Npg-B5-Asp-Asp-Ala-Ala-Phe-Leu-PyrS2-Pff-BztA-Gln-NH2]
23600 nM	128 nM		46 µM (≈ 92.1 µg/mL)		CC(=O)N1CCC[C@]12CC=CCCCC1(CCCC=CCCCOC(=O)N3CC[C@@](C(=O)N[C@@H](Cc4c(F)c(F)c(F)c(F)c4F)C(=O)N[C@@H](Cc4csc5ccccc45)C(=O)N[C@@H](CCC(N)=O)C(N)=O)(C3)NC(=O)[C@H](CC(N)=O)NC(=O)[C@H](Cc3ccccc3)NC(=O)[C@H](C)NC(=O)[C@H](C)NC(=O)[C@H](CC(=O)O)NC(=O)[C@H](CC(=O)O)NC1=O)NC(=O)[C@H](CC(C)(C)C)NC(=O)[C@H](CC(=O)O)NC2=O (stereo partly drawn) [I-1186, Ac-PL3-Asp-Npg-B5-Asp-Asp-Ala-Ala-Phe-Asn-PyrS2-Pff-BztA-Gln-NH2]
28600 nM	80.5 nM		42 µM (≈ 82.9 µg/mL)		CC(=O)N1CCC[C@]12CC=CCCCC1(CCCC=CCCCOC(=O)N3CC[C@@](C(=O)N[C@@H](Cc4c(F)c(F)c(F)c(F)c4F)C(=O)N[C@@H](Cc4csc5ccccc45)C(=O)N[C@@H](CO)C(N)=O)(C3)NC(=O)[C@H]([C@@H](C)O)NC(=O)[C@H](Cc3ccccc3)NC(=O)[C@H](C)NC(=O)[C@H](C)NC(=O)[C@H](CC(=O)O)NC(=O)[C@H](CC(=O)O)NC1=O)NC(=O)[C@H](CC1CCCCC1)NC(=O)[C@H](CC(=O)O)NC2=O (stereo partly drawn) [I-1187, Ac-PL3-Asp-Cha-B5-Asp-Asp-Ala-Ala-Phe-Thr-PyrS2-Pff-BztA-Ser-NH2]
7200 nM	22.5 nM		18 µM (≈ 33.7 µg/mL)		CC(=O)N1CCC[C@]12CC=CCCCC1(CCCC=CCCCCCC[C@@](C)(C(=O)N[C@@H](Cc3ccsc3)C(=O)N[C@@H](Cc3csc4ccccc34)C(=O)N[C@@H](CCC(N)=O)C(N)=O)NC(=O)[C@H](CC(C)C)NC(=O)[C@H](Cc3ccccc3)NC(=O)[C@H](C)NC(=O)[C@H](C)NC(=O)[C@H](CC(=O)O)NC(=O)[C@H](CC(=O)O)NC1=O)NC(=O)[C@H](CC(C)(C)C)NC(=O)[C@H](CC(=O)O)NC2=O (stereo partly drawn) [I-1188, Ac-PL3-Asp-Npg-B5-Asp-Asp-Ala-Ala-Phe-Leu-S8-3Thi-BztA-Gln-NH2]
16200 nM	29.5 nM	10 µM (≈ 18.8 µg/mL)			CC(=O)N1CCC[C@]12CC=CCCCC1(CCCC=CCCCCCC[C@@](C)(C(=O)N[C@@H](Cc3ccsc3)C(=O)N[C@@H](Cc3csc4ccccc34)C(=O)N[C@@H](Cc3c[nH]cn3)C(N)=O)NC(=O)[C@H](CC(C)C)NC(=O)[C@H](Cc3ccccc3)NC(=O)[C@H](C)NC(=O)[C@H](C)NC(=O)[C@H](CC(=O)O)NC(=O)[C@H](CC(=O)O)NC1=O)NC(=O)[C@H](CC(C)(C)C)NC(=O)[C@H](CC(=O)O)NC2=O (stereo partly drawn) [I-1195, Ac-PL3-Asp-Npg-B5-Asp-Asp-Ala-Ala-Phe-Leu-S8-3Thi-BztA-His-NH2]
> 20000 nM	99 nM		48 µM (≈ 93.2 µg/mL)		CC(=O)N1CCC[C@]12CC=CCCCC1(CCCC=CCCCOC(=O)N3CC[C@@](C(=O)N[C@@H](Cc4ccsc4)C(=O)N[C@@H](Cc4csc5ccccc45)C(=O)N[C@@H](CCC(N)=O)C(N)=O)(C3)NC(=O)[C@H](CC(C)C)NC(=O)[C@H](Cc3ccccc3C#N)NC(=O)[C@H](C)NC(=O)[C@H](C)NC(=O)[C@H](CC(=O)O)NC(=O)[C@H](CC(=O)O)NC1=O)NC(=O)[C@H](CC(C)(C)C)NC(=O)[C@H](CC(=O)O)NC2=O (stereo partly drawn) [I-1200, Ac-PL3-Asp-Npg-B5-Asp-Asp-Ala-Ala-2CNF-Leu-PyrS2-3Thi-BztA-Gln-NH2]
19600 nM	13 nM		47 µM (≈ 91.3 µg/mL)		CC(=O)N1CCC[C@]12CC=CCCCC1(CCCC=CCCCOC(=O)N3CC[C@@](C(=O)N[C@@H](Cc4ccsc4)C(=O)N[C@@H](Cc4csc5ccccc45)C(=O)N[C@@H](CCC(N)=O)C(N)=O)(C3)NC(=O)[C@H](CC(C)C)NC(=O)[C@H](Cc3cccc(C#N)c3)NC(=O)[C@H](C)NC(=O)[C@H](C)NC(=O)[C@H](CC(=O)O)NC(=O)[C@H](CC(=O)O)NC1=O)NC(=O)[C@H](CC(C)(C)C)NC(=O)[C@H](CC(=O)O)NC2=O (stereo partly drawn) [I-1201, Ac-PL3-Asp-Npg-B5-Asp-Asp-Ala-Ala-3CNF-Leu-PyrS2-3Thi-BztA-Gln-NH2]
16300 nM	16 nM	50 µM (≈ 97.1 µg/mL)			CC(=O)N1CCC[C@]12CC=CCCCC1(CCCC=CCCCOC(=O)N3CC[C@@](C(=O)N[C@@H](Cc4ccsc4)C(=O)N[C@@H](Cc4csc5ccccc45)C(=O)N[C@@H](CCC(N)=O)C(N)=O)(C3)NC(=O)[C@H](CC(C)C)NC(=O)[C@H](Cc3ccc(C#N)cc3)NC(=O)[C@H](C)NC(=O)[C@H](C)NC(=O)[C@H](CC(=O)O)NC(=O)[C@H](CC(=O)O)NC1=O)NC(=O)[C@H](CC(C)(C)C)NC(=O)[C@H](CC(=O)O)NC2=O (stereo partly drawn) [I-1202, Ac-PL3-Asp-Npg-B5-Asp-Asp-Ala-Ala-4CNF-Leu-PyrS2-3Thi-BztA-Gln-NH2]
